Experiments:
H2228 cell line = assay: Additional in vitro IC50 tests (Table 3); type: cell-based; conditions: Homo sapiens, NCI-H2228
Experimental: (§1) Cell lines were maintained according to the instructions provided by ATCC (https://www.lgcstandards-atcc.org/) in a 5% CO2 humidified incubator maintained at 37° C. temperature. Effects of compounds on cell viability were measured via CellTiter-Glo® luminescent cell viability assay (Promega, Madison, WI, USA) Cells were plated at 1000 cells/well onto a flat-bottomed, white 96 well plate (BRANDplates, cat. no.: 781965). […] After the treatment, medium was removed and CellTiter-Glo® reagent was added. The luminescence signal was recorded using a microplate reader (BioTek Synergy 2 Multi-Mode Reader, BioTek, Winooski, VT, USA).
(§2) Cell viability data (% of untreated control cells) was evaluated with Microsoft Excel. Dose-response curves (using a non-linear regression model, log (inhibitor) vs response, variable slope) were generated and IC50 values were determined using Graph Pad Prism 5.02 software (GraphPad Software, San Diego, CA, USA).

Detroit 562 cell line = assay: Additional in vitro IC50 tests (Table 3); type: cell-based; conditions: Homo sapiens
Experimental: as §1, §2

EBC-1 cell line = assay: Additional in vitro IC50 tests (Table 3); type: cell-based; conditions: Homo sapiens
Experimental: as §1, §2

Fadu cell line = assay: Additional in vitro IC50 tests (Table 3); type: cell-based; conditions: Homo sapiens
Experimental: as §1, §2

SCC-25 cell line = assay: Additional in vitro IC50 tests (Table 3); type: cell-based; conditions: Homo sapiens
Experimental: as §1, §2

[1] = tested on: Panc1 pancreatic cancer cell line; assay: CellTiter-Glo IC50 (Example 19); type: cell-based; conditions: Homo sapiens, PANC-1, 72 h
Experimental: Some representative imipridones and ONC212 as reference were further tested on the following human malignant cell lines: PC3 and LNCap (prostate carcinoma); BxPC3, MiaPaCa2 and Panc1 (pancreatic cancer); A549, HCC827, H1993 and H520 (lung carcinoma); MDA-MB-453 and MDA-MB-231 (breast cancer) (see Table 2 and FIGS. 1-11).
as §1, §2

IC50 (H2228 cell line) | IC50 (Detroit 562 cell line) | IC50 (EBC-1 cell line) | IC50 (Fadu cell line) | IC50 (SCC-25 cell line) | melting point | IC50 [1] | SMILES
15 nM | 10 nM | 16 nM | 16 nM | 21 nM | 158 °C | – | [N-]=[N+]=Nc1cccc(CN2C(=O)C3=C(CCN(Cc4cc(F)cc(F)c4)C3)N3CCN=C23)c1 [I/127, 4-(3-Azidobenzyl)-7-(3,5-difluorobenzyl)-2,4,6,7,8,9-hexahydroimidazo[1,2-a]pyrido[3,4-e]pyrimidin-5(1H)-one]
300 nM | 120 nM | > 300 nM | 150 nM | > 300 nM | – | 265 nM | O=C1C2=C(CCN(Cc3cc(F)cc(F)c3)C2)N2CCN=C2N1[C@H](CO)c1ccc(F)cc1 [I/129 (S)]

Reference: patent US20230295162A1 (EÖTVÖS LORÁND TUDOMÁNYEGYETEM, priority 2020, published 2023)
